In US7947662B2, “Folates, compositions and uses thereof” (priority 2008, dated 2011):
Like-named read-outs stand apart in the source and are kept apart here.

Assays:
[1] = Stability of the powder in sealed aluminium foil bag, purity and titre by HPLC; format: physicochemical; settings: protected from light; for Titre, starting values: HPLC titre of acid moiety; for Titre, starting values / Purity, starting values: start; for Purity, starting values: airtight container
Procedure: The stability of the compounds listed in the following table, under powder form and in sealed aluminium foil bag, was tested, keeping the samples in airtight container, protected from light and measuring the purity and the titre thereof after 6 and 12 months.
In particular, the stability of the acid moiety was observed by HPLC, detecting the purity and titre thereof.

[2] = mice, one capsule
Procedure: The biological tests were carried out on 12 mice weighing 200-300 g, administering to each of them one 3 mg capsule containing the dose of the selected compound, as below reported, dispersed in lactose.
The haematic values of the selected compound were subsequently evaluated after regular time intervals (0, 30, 60, 95, 120 min.).

[3] = cited from earlier work
[4] = background statement, cited from earlier work
[5] = after nine months, U.S. Pat. No. 5,817,659 (Example 1)
[6] = after twelve months, U.S. Pat. No. 6,271,374 (Example 1)

SMILES | Titre, starting values [1] [%] | Purity, starting values [1] | Purity after 6 months [1] | Titre after 6 months [1] [%] | Purity after 12 months [1] | Titre after 12 months [1] [%] | haematic value ([2]; time 0.5 h) [nmol/L] | haematic value ([2]; time 1.5 h) [nmol/L] | haematic value ([2]; time 2 h) [nmol/L] | titre decrease [3, 5] | other results
CN1c2c([nH]c(N)nc2=O)NC[C@@H]1CNc1ccc(C(=O)N[C@@H](CCC(=O)[O-])C(=O)[O-])cc1.[Ca+2] [5-methyl-(6S)-tetrahydrofolic acid calcium salts] |  |  |  |  |  |  |  |  |  |  | titre decrease ([3]; after twelve months, U.S. Pat. No. 6,441,168 (Example 1)): about 1%
Nc1nc(=O)c2c([nH]1)NC[C@@H](CNc1ccc(C(=O)N[C@@H](CCC(=O)[O-])C(=O)[O-])cc1)N2.[Ca+2] [(6R)-tetrahydrofolic acid calcium salts] |  |  |  |  |  |  |  |  |  | about 2% | titre decrease [3, 6]: about 7%
Nc1nc(=O)c2c([nH]1)NCC(CNc1ccc(C(=O)N[C@@H](CCC(=O)[O-])C(=O)[O-])cc1)N2.[Ca+2] (stereo partly drawn) [(6R,S)-tetrahydrofolic acid calcium salts] |  |  |  |  |  |  |  |  |  | about 2% | 
Nc1nc(=O)c2c([nH]1)NC[C@H](CNc1ccc(C(=O)N[C@@H](CCC(=O)[O-])C(=O)[O-])cc1)N2.[Ca+2] [(6S)-tetrahydrofolic acid calcium salts] |  |  |  |  |  |  |  |  |  | about 2% | titre decrease [3, 6]: about 7%
Nc1nc2ncc(CNc3ccc(C(=O)N[C@@H](CCC(=O)O)C(=O)O)cc3)nc2c(=O)[nH]1 [Folic acid, N-[4-[[(2-amino-1,4-dihydro-4-oxo-6-pteridinyl)methyl]amino]benzoyl]-L-glutamic acid] |  |  |  |  |  |  |  |  |  |  | solubility in alcohol ([4]; alcohol): insoluble; solubility in dilute solutions of alkali hydroxides and carbonates [4]: readily soluble; solubility in water ([4]; water): very slightly soluble

Continued, in another order:

Titre, starting values [1] [%] | Purity, starting values [1] | Purity after 6 months [1] | Titre after 6 months [1] [%] | Purity after 12 months [1] | Titre after 12 months [1] [%] | haematic value ([2]; time 0.5 h) [nmol/L] | haematic value ([2]; time 1.5 h) [nmol/L] | haematic value ([2]; time 2 h) [nmol/L] | SMILES | titre decrease [3, 5] | other results
55.5 | 99.1 | 98.9 | 55.2 | 98.7 | 55.3 |  |  |  | CN1c2c(nc(N)[nH]c2=O)NCC1CNc1ccc(C(=O)NC(CCC(=O)O)C(=O)O)cc1.NC1C(O)OC(CO)C(O)C1O.NC1C(O)OC(CO)C(O)C1O (mixture of isomers) [D-GAL (6R,S)-5-MTHF, D-galactosamine 5-methyl-(6R,S)-tetrahydrofolate] |  | 
55.2 | 99.1 | 98.9 | 55 | 99.0 | 54.8 | 83.2 ± 4.9 | 83.8 ± 4.3 | 82.8 ± 4.3 | CN1c2c(nc(N)[nH]c2=O)NCC1CNc1ccc(C(=O)NC(CCC(=O)O)C(=O)O)cc1.NC1C(O)OC(CO)C(O)C1O.NC1C(O)OC(CO)C(O)C1O (mixture of isomers) [D-GLU 5-MTHF, D-glucosamine 5-methyl-(6R,S)-tetrahydrofolate] |  | 
54.8 | 99.2 | 99.1 | 54.5 | 98.7 | 54.2 |  |  |  | N[C@H]1C(O)O[C@H](CO)[C@H](O)[C@@H]1O.N[C@H]1C(O)O[C@H](CO)[C@H](O)[C@@H]1O.Nc1nc2ncc(CNc3ccc(C(=O)N[C@@H](CCC(=O)O)C(=O)O)cc3)nc2c(=O)[nH]1 [D-GAL folate, D-galactosamine L-folate] |  | 
55.7 | 99.3 | 99.0 | 55.4 | 98.5 | 55.1 | 83.7 ± 5.2 | 83.7 ± 4.3 | 83 ± 4.3 | CN1c2c(nc(N)[nH]c2=O)NCC1CNc1ccc(C(=O)NC(CCC(=O)O)C(=O)O)cc1.NC1C(O)OC(CO)C(O)C1O.NC1C(O)OC(CO)C(O)C1O [D-GLU (6S)-5-MTHF, D-glucosamine 5-methyl-(6S)-tetrahydrofolate] |  | haematic value ([2]; time 1 h): 86.1 ± 5.0 nmol/L
54.6 | 99.1 | 98.8 | 54.3 | 98.7 | 54 | 75.3 ± 4.3 | 78.4 ± 4.3 | 76.8 ± 4.3 | N[C@H]1C(O)O[C@H](CO)[C@@H](O)[C@@H]1O.N[C@H]1C(O)O[C@H](CO)[C@@H](O)[C@@H]1O.Nc1nc2ncc(CNc3ccc(C(=O)N[C@@H](CCC(=O)O)C(=O)O)cc3)nc2c(=O)[nH]1 [D-GLU folate, D-glucosamine L-folate] |  | haematic value ([2]; time 1 h): 79.8 ± 5.2 nmol/L
